Measurements reported in US20180037595A1, “BENZOXABOROLE COMPOUNDS AND USES THEREOF” (GLAXOSMITHKLINE INTELLECTUAL PROPERTY (NO.2) LIMITED, priority 2015, published 2018).
pIC50: −log10 of the molar value. Converted amounts (≈) assume the structure as drawn. Where two headings read alike, the source gives them in different places.

Legend:
HepG2 cells = assay: HepG2 cytotoxicity assay (resazurin); format: cell-based
E. coli K12 = assay: General antimicrobial activity assay (CLSI broth microdilution); format: cell-based
Protocol: (§1) Whole-cell antimicrobial activity was determined by broth microdilution using the Clinical and Laboratory Standards Institute (CLSI) recommended procedure, Document M7-A7, “Methods for Dilution Susceptibility Tests for Bacteria that Grow Aerobically”.

P. aeruginosa PA01 = assay: as above; format: cell-based
Protocol: as §1

E. coli K12 tolC::Tn10 = assay: as above; format: cell-based; details: Escherichia coli, read-out: MIC: E. coli K12 tolC::Tn10
Protocol: as §1

A. baumannii ATCC 17978 = assay: as above; format: cell-based
Protocol: as §1

Mtb LeuRS = Mtb LeuRS (Mycobacterium tuberculosis, UniProt P9WFV1); assay: LeuRS aminoacylation assay, IC50 determination; format: biochemical, M. tuberculosis
Protocol: For biochemical analyses an N-terminal six histidine-tagged LeuRS was over-expressed in Escherichia coli which were E. coli codon-optimised (GenScript, Piscataway N.J., USA), from human mitochondria and cytoplasm, and M. tuberculosis. N-terminal six histidine-tagged LeuRS proteins were over-expressed and purified according to Novagen (Madison, Wis., USA) using an E. coli BL21(DE3) T7 RNA polymerase over-expression strain.
Experiments were performed in 96-well microtiter plates, using 80 μL reaction mixtures containing 50 mM HEPES-KOH (pH 8.0), 30 mM MgCl2 30 mM KCl, 13 μM L-[^14C]leucine (306 mCi/mmol, Perkin-Elmer), 15 uM total E. coli tRNA (Roche, Switzerland), 0.02% (w/v) BSA, 1 mM DTT, 0.2 μM LeuRS and 4 mM ATP at 30° C. Reactions were started by the addition of 4 mM ATP. After 7 minutes, reactions were quenched and tRNA was precipitated by the addition of 50 μL of 10% (w/v) TCA and transferred to 96-well nitrocellulose membrane filter plates (Millipore Multiscreen HTS, MSHAN4B50). Each well was then washed three times with 100 μL of 5% TCA. Filter plates were then dried under a heat lamp and the precipitated L-[^14C]leucine tRNALeu were quantified by liquid scintillation counting using a Wallac MicroBeta Trilux model 1450 liquid scintillation counter (PerkinElmer, Waltham, Mass., USA). The only difference was with the human cytoplasmic LeuRS when we used tRNA isolated from Brewer's Yeast (Roche Diagnostics GmbH).
Reactions were initiated by the addition of 4 mM ATP. Reactions were stopped after 7 minutes then precipitated and counted to quantify radioactivity. IC50 values were determined using the Graphpad Prism software package (Graphpad Software Inc. (La Jolla, Calif., USA).

Human mito LeuRS = target: T1, Human mito LeuRS (Homo sapiens, UniProt Q15031); assay: LeuRS aminoacylation assay, IC50 determination; format: biochemical
T1 sequence (Q15031 1-903): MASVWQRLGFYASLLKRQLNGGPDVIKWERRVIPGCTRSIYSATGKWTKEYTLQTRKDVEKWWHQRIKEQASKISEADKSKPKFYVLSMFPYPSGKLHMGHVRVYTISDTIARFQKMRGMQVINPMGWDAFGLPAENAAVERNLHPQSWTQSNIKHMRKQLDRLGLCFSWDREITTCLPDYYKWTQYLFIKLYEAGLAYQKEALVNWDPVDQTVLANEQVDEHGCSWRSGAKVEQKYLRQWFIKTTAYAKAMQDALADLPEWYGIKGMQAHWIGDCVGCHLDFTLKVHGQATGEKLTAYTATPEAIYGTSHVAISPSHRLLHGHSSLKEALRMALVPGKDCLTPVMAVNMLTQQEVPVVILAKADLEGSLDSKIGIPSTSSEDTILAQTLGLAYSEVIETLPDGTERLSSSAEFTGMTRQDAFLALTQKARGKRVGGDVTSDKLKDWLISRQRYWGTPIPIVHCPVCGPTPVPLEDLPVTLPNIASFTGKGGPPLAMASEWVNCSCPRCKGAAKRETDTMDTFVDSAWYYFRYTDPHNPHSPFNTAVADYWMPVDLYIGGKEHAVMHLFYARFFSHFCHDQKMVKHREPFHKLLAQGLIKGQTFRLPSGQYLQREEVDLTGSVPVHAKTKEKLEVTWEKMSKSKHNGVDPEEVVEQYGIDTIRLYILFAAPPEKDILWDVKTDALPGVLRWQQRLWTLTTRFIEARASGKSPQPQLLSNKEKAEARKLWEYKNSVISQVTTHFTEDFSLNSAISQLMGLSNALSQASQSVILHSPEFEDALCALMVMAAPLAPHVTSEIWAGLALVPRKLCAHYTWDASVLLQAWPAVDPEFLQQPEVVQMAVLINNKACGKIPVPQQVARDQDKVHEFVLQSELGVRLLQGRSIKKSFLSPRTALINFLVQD

Human cyto LeuRS = Human cyto LeuRS (Homo sapiens, UniProt Q9P2J5); assay: LeuRS aminoacylation assay, IC50 determination; format: biochemical
[1] = system: M. tuberculosis clinical isolates; assay: MIC against clinical strains (BACTEC MGIT 960 System); format: cell-based; details: Mycobacterium tuberculosis, nearly all of the clinical isolate strains of Tables 2A-2D
[2] = system: M. tuberculosis standard strain Mtb H37Rv; assay: MIC determination against mycobacteria (resazurin microtiter assay); format: cell-based, Mycobacterium tuberculosis; details: for Selectivity Index (A/B): HepG2 cell 48 h Tox50 (A) / Mtb H37Rv MIC (B); for MIC: Mycobacterium tuberculosis, H37RV, read-out: Mtb H37Rv MIC (B)
[3] = Homo sapiens, HepG2, 48 h; read-out: HepG2 cell 48 h Tox50 (A)
[4] = Escherichia coli, K12; read-out: MIC: E. coli K12
[5] = Pseudomonas aeruginosa, PA01; read-out: MIC: P. aeruginosa PA01
[6] = Acinetobacter baumannii, ATCC17978; read-out: MIC: A. baumannii ATCC 17978
[7] = Homo sapiens, HepG2, 48 h, read-out: HepG2 cell 48 h Tox50 (A)
[8] = Escherichia coli, K12, read-out: MIC: E. coli K12
[9] = Pseudomonas aeruginosa, PA01, read-out: MIC: P. aeruginosa PA01
[10] = Acinetobacter baumannii, ATCC17978, read-out: MIC: A. baumannii ATCC 17978
[11] = said to be sub-micromolar, read-out: IC50 values against M. tuberculosis
[12] = listed as EXAMPLE 4 G4-Cl, hydrochloride

Mtb LeuRS, sequence (P9WFV1 whole entry): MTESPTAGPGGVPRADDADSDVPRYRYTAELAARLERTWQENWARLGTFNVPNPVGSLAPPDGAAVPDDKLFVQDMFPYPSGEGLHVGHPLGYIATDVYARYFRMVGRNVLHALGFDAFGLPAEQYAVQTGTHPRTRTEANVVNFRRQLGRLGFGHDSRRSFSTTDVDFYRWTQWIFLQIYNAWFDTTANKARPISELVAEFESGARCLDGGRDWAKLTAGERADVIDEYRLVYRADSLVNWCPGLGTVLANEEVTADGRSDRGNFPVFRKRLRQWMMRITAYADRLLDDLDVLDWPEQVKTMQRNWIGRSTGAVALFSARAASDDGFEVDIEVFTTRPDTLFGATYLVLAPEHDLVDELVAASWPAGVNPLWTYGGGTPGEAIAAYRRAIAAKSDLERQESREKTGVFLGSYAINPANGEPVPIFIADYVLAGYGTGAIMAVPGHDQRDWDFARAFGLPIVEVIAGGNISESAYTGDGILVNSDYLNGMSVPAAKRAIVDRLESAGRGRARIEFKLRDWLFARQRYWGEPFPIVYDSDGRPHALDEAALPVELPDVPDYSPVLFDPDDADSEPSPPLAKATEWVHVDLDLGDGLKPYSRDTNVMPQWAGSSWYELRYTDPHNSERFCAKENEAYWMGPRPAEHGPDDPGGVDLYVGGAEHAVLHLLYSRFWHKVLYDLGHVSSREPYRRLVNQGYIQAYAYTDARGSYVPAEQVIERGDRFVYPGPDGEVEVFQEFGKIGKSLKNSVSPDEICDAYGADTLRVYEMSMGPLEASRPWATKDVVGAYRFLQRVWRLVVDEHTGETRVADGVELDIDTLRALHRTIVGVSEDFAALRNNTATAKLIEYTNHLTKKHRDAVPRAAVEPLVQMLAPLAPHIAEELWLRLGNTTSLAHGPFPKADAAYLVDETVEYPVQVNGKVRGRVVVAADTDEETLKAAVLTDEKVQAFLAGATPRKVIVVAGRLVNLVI
Human cyto LeuRS, sequence (Q9P2J5 whole entry): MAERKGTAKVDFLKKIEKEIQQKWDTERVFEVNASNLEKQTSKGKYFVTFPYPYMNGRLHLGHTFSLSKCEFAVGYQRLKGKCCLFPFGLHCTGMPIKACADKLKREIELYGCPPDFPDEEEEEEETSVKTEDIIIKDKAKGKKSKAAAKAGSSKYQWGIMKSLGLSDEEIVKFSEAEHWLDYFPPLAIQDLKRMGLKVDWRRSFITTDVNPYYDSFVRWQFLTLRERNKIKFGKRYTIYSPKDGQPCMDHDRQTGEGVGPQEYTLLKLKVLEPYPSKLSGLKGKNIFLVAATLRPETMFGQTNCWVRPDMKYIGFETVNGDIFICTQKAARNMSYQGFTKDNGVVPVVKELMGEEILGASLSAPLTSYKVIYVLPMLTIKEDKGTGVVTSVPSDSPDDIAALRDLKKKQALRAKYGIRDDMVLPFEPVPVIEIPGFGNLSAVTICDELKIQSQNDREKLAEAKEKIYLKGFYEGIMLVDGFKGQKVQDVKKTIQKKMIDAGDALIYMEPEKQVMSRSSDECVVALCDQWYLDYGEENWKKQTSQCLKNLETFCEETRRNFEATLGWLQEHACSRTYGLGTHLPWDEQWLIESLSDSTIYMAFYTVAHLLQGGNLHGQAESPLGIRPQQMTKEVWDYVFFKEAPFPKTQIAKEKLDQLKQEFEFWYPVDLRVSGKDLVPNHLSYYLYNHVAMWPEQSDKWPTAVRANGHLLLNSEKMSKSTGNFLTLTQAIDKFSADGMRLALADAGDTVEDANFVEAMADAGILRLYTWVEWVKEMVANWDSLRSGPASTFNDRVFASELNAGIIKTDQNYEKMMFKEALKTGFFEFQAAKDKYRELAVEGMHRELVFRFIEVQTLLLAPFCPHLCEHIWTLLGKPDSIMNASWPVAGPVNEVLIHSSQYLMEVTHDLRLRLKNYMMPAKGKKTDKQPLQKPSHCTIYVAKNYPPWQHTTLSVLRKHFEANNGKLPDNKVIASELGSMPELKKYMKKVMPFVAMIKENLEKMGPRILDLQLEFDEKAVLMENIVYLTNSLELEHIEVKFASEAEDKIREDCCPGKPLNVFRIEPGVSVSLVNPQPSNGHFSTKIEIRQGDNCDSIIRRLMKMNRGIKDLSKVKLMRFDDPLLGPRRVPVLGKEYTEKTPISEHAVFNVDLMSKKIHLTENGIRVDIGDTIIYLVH

Row | SMILES | pIC50 (HepG2 cells; [3]) | MIC (E. coli K12 tolC::Tn10) [µg/mL] | pIC50 (Human mito LeuRS) | pIC50 (HepG2 cells; [7]) | pIC50 (Human cyto LeuRS) | MIC (E. coli K12; [8]) [µg/mL] | MIC (P. aeruginosa PA01; [9]) [µg/mL] | MIC (A. baumannii ATCC 17978; [10]) [µg/mL] | pIC50 (Mtb LeuRS; read-out: Mtb LeuRS IC50) | Selectivity Index (A/B) [2] | MIC [2] [µM] | other results
1 | CCOc1ccc(Cl)c2c1B(O)O[C@@H]2CN [Example C6-Cl, reference compound] | 4.44 | 64 (≈ 265 µM) | < 3.52 | – | – | – | – | – | – | – | – | MIC (E. coli K12; [4]): 64 µg/mL (≈ 265 µM); MIC (P. aeruginosa PA01; [5]): 64 µg/mL (≈ 265 µM); MIC (A. baumannii ATCC 17978; [6]): 64 µg/mL (≈ 265 µM); pIC50 (Mtb LeuRS; Mtb LeuRS IC50): 7.30
2 | Cl.NC[C@H]1OB2OCCOc3ccc(Br)c1c32 [Example 2, (S)-(3-bromo-7,8-dihydro-2H-1,6,9-trioxa-9a-borabenzo[cd]azulen-2-yl)methanamine hydrochloride] | – | 64 | < 3.52 | 3.53 | 3.93 | 64 | 64 | 64 | 6.94 | 4177 | < 0.1 | pIC50 (Mtb LeuRS; [11]): 6.89; MIC [1]: < 0.1 µM; Mtb H37Rv MIC (B) ([2]; listed as EXAMPLE 2 G2-Br, hydrochloride): 0.07 µM
3 | Cl.NC[C@H]1OB2OCCOc3ccc(Cl)c1c32 [Example 4, (S)-(3-chloro-7,8-dihydro-2H-1,6,9-trioxa-9a-borabenzo[cd]azulen-2-yl)methanamine hydrochloride] | – | 64 | < 3.52 | < 3.00 | 4.02 | 64 | 64 | 64 | 6.83 | – | < 0.1 | pIC50 (Mtb LeuRS; [11]): 7.00; Selectivity Index (A/B) [2, 12]: >12500; Selectivity Index (A/B) ([2]; listed as Example 4 G4-CI, hydrochloride): > 12,500; Mtb H37Rv MIC (B) [2, 12]: 0.08 µM
4 | NCC1OB2OCCOc3cccc1c32 (racemic) [Example C2-H, reference compound] | – | 4 (≈ 19.5 µM) | < 3.52 | < 4.30 | 3.57 | 2 (≈ 9.76 µM) | 2 (≈ 9.76 µM) | 2 (≈ 9.76 µM) | 6.30 | >26 | – | –
5 | CCOc1ccc(Br)c2c1B(O)O[C@@H]2CN [Example C4-Br, reference compound] | 4.49 | 64 (≈ 224 µM) | < 3.52 | – | 4.51 | – | – | – | – | – | – | MIC (E. coli K12; [4]): 64 µg/mL (≈ 224 µM); MIC (P. aeruginosa PA01; [5]): 64 µg/mL (≈ 224 µM); MIC (A. baumannii ATCC 17978; [6]): 64 µg/mL (≈ 224 µM); pIC50 (Mtb LeuRS; Mtb LeuRS IC50): 7.15
6 | CC1(C)COc2ccc(Br)c3c2B(OC3CN)O1.Cl (stereo not drawn) [Example 9, (3-bromo-8,8-dimethyl-7,8-dihydro-2H-1,6,9-trioxa-9a-borabenzo[cd]azulen-2-yl)methanamine hydrochloride] | – | > 64 | – | < 4.30 | < 3.52 | > 64 | > 64 | > 64 | 5.90 | – | 0.3 | Selectivity Index (A/B) ([2]; listed as EXAMPLE 9 G9-Br, hydrochloride): >167; Selectivity Index (A/B) ([2]; listed as Example 9 G9-Br, hydrochloride): > 167
7 | CCOc1cccc2c1B(O)O[C@@H]2CN [Example C5-H, reference compound] | 5.74 | – | < 3.52 | – | 4.59 | – | – | – | 6.95 | 5 | – | –
8 | NC[C@H]1OB2OCCOc3ccc(Cl)c1c32 [Example G4-CI] | – | – | – | – | – | – | – | – | – | – | – | MIC [1]: < 0.1 µM
9 | CC1(C)COc2ccc(Cl)c3c2B(OC3CN)O1.Cl (stereo not drawn) [Example 11, (3-chloro-8,8-dimethyl-7,8-dihydro-2H-1,6,9-trioxa-9a-borabenzo[cd]azulen-2-yl)methanamine hydrochloride] | – | > 64 | – | < 4.30 | < 3.52 | > 64 | > 64 | > 64 | 6.17 | – | 0.27 | Selectivity Index (A/B) ([2]; listed as EXAMPLE 11 G11-Cl, hydrochloride): >185; Selectivity Index (A/B) ([2]; listed as Example 11 G11-CI, hydrochloride): > 185
10 | CC1(C)COc2ccc(Br)c3c2B(O[C@@H]3CN)O1.Cl [Example 10, (S)-(3-bromo-8,8-dimethyl-7,8-dihydro-2H-1,6,9-trioxa-9a-borabenzo[cd]azulen-2-yl)methanamine hydrochloride] | – | > 64 | – | 3.34 | < 3.52 | > 64 | > 64 | > 64 | 5.95 | – | 0.16 | –
